The subject of the experiment is SW1271 complex spheroids with HUVEC/MSC, growth, % test/control. The experiment is described as follows: Anticancer human tumor SW1271 cell line growth inhibition [AhR].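 As to all read-outs here: spheroids exposed to agents for 7 days before readout.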 Conditions: for viability, T/C: stronger effect = lower value. From the text: Multicellular complex tumor spheroid response to aryl hydrocarbon receptor antagonists in combination with a variety of drugs and investigational agents in selected tumor cell lines
The current study was undertaken to assess response to aryl hydrocarbon receptor antagonists in combination with standard-of-care drugs and investigational agents in solid tumor complex spheroid models. Complex spheroids include a stromal component modeled by human endothelial cells (HUVEC) and fibroblasts modeled by human mesenchymal stem cells (MSCs). The concentration ranges selected for each drug and investigational agent were based upon clinically achievable concentrations if the clinical Cmax of the agent was known.
Compounds. The drugs and investigational agents: BAY 2416964 (NSC825713), GNF351 (NSC835774), CH-223191 (NSC835775), CPI-455 (NSC825282), aza-TdCyd (NSC777586), decitabine (NSC127716), belinostat (NSC758774), entinostat (NSC756642), pevonedistat (NSC761192), tazemetostat (NSC777109), talazoparib (NSC765396), olaparib (NSC753686), selinexor (NSC780203), nedisertib (M3814, NSC802822), bortezomib (NSC756655), venetoclax (NSC766270), doxorubicin (NSC123127), elimusertib (BAY189344, NSC800525), ceralasertib (AZD6738, NSC777638), TAK-243 (NSC785004), alisertib (NSC759677), etoposide (NSC141540), topotecan (NSC609699), eribulin (NSC707389), gemcitabine (NSC613327), carboplatin (NSC241240), cisplatin (NSC119875), and SN-38 (NSC673596) were obtained from the National Cancer Institute (NCI) Developmental Therapeutics Program Chemical Repository (32). The FDA-approved anticancer drug set is available from the Developmental Therapeutics Program at https://dtp.cancer.gov/organization/dscb/obtaining/available plates.htm. […] The stock solutions were prepared in dimethyl sulfoxide (DMSO, Sigma-Aldrich, St. Louis, MO, cat. D2650), except for the platinum compounds which were prepared in saline (Quality Biological, Gaithersburg, MD, cat. 114-055-101), at 800-fold the tested concentration and stored at -70 degrees C prior to their use. All drugs and investigational agents were tested over a range starting from a high concentration at or near the clinical Cmax and decreasing in half-log increments. If the clinical Cmax for an agent had not been determined, the highest concentration tested was 10 microM (Table 1).
Cell Culture. All cells were maintained in an incubator at 37 degrees C and 5% CO2 with 95% humidity. The PDC lines were cultured according to standard operating procedures established by the NCI PDMR (https://pdmr.cancer.gov). Briefly, all PDCs were thawed and cultured in Matrigel-coated flasks prepared with a working solution of 1X Ham's F-12 nutrient mix, without supplementation (Invitrogen, Waltham, MA, cat. 11765054), 100 U/mL penicillin-streptomycin (Invitrogen, cat. 15140122), and 2.5% Matrigel (Corning Inc., Corning, NY, cat. 354248) for the first three passages. All PDCs were cultured in complete DMEM/F-12 media containing advanced DMEM/F-12 (Invitrogen, cat. 12634028), 4.9% defined fetal bovine serum, heat inactivated (HyClone Laboratories Inc., Logan, UT, cat. SH30070.03HI), 389 ng/mL hydrocortisone (Sigma-Aldrich, cat. H4001), 9.7 ng/mL human EGF recombinant protein (Invitrogen, cat. PHG0313), 23.4 microg/mL adenine (Sigma-Aldrich, cat. A2786), 97.3 U/mL penicillin-streptomycin (Invitrogen, cat. 15140122), 1.9 mM L-glutamine (Invitrogen, cat. 25030081), and 9.7 microM Y-27632 dihydrochloride (Tocris Bioscience, Bristol, United Kingdom, cat. 1254). The PDCs were cultured in complete DMEM/F12 media without 10 microM Y-27632 dihydrochloride for at least two passages prior to the screen. The established cell lines NCI-H1341 and […] were cultured in DMEM/F-12, HEPES (Invitrogen, cat. 11330032), 5% defined fetal bovine serum (HyClone Laboratories Inc., cat. SH30070.03), ITS premix universal culture supplement [insulin (5 microg/mL), transferrin (5 microg/mL), and selenious acid (5 ng/mL)] […]

The mark [1] stands for this setting: curve of first compound, second compound 0.1 µM.
[2] abbreviates: curve of first compound, second compound 0.316 µM.
Setting [3] is: curve of first compound, second compound 1 µM.
Where [4] appears, read: curve of first compound, second compound 3.16 µM.
Where [5] appears, read: curve of first compound, second compound 10 µM.
[6] abbreviates: second compound 0.1 µM, first compound 0.0316 µM.
[7] abbreviates: second compound 0.1 µM, first compound 0.1 µM.
Setting [8] is: second compound 0.1 µM, first compound 0.316 µM.
[9] abbreviates: second compound 0.1 µM, first compound 1 µM.
[10] abbreviates: second compound 0.316 µM, first compound 0.0316 µM.
The mark [11] stands for this setting: second compound 0.316 µM, first compound 0.1 µM.
The mark [12] stands for this setting: second compound 0.316 µM, first compound 0.316 µM.
Where [13] appears, read: second compound 0.316 µM, first compound 1 µM.
Where [14] appears, read: second compound 1 µM, first compound 0.0316 µM.
The mark [15] stands for this setting: second compound 1 µM, first compound 0.1 µM.
[16] abbreviates: second compound 1 µM, first compound 0.316 µM.
Where [17] appears, read: second compound 1 µM, first compound 1 µM.
[18] abbreviates: second compound 3.16 µM, first compound 0.0316 µM.
Setting [19] is: second compound 3.16 µM, first compound 0.1 µM.
The mark [20] stands for this setting: second compound 3.16 µM, first compound 0.316 µM.
The mark [21] stands for this setting: second compound 3.16 µM, first compound 1 µM.
The mark [22] stands for this setting: second compound 10 µM, first compound 0.0316 µM.
The mark [23] stands for this setting: second compound 10 µM, first compound 0.1 µM.
Where [24] appears, read: second compound 10 µM, first compound 0.316 µM.
Where [25] appears, read: second compound 10 µM, first compound 1 µM.

SMILES strings stand for the structures. “And” between values parts separate entries of the source, which are not always exact repeats. Equal entries are not always repeated.

By viability, T/C is commonly meant the ratio of treated to control. In general, IC50 refers to the concentration at which inhibition is half-maximal. Regarding `CC(C)c1c(-c2ccccc2)nc2c(C#N)c[nH]n2c1=O`, the viability, T/C is 110% and 109% and 85.9% (compound 0.0316 µM); 81.4% and 104% and 86.4% (compound 0.1 µM); 121% and 91.8% and 104% (compound 0.316 µM); 101% and 92.5% and 93.3% (compound 1 µM); 110% and 91.8% and 94% (compound 3.16 µM); 107% and 91.7% and 85.8% (compound 10 µM). Also, the IC50 (curve of compound) was greater than 10000 nM.

In the case of `CC(CO)NC(=O)c1cc(-c2ccc(Cl)cc2)nn(-c2cnn(C)c2)c1=O` (stereo not given), the viability, T/C (compound 0.1 µM) was 94.2% [middle of 20 runs]. Moreover, the IC50 (compound alone, run of 08/08/2022) is greater than 10000 nM.

`CC1COCCN1c1cc(C2(S(C)(=N)=O)CC2)nc(-c2ccnc3[nH]ccc23)n1` (stereo not given): the viability, T/C was 106% and 99.7% and 91.9% (compound 0.0316 µM); 85.4% and 106% and 103% (compound 0.1 µM); 87.8% (2×) and 79.2% (compound 0.316 µM); 77.5% and 84% and 73.8% (compound 1 µM); 80.1% and 69.6% and 68.8% (compound 3.16 µM); 59.5% and 70.1% and 51.9% (compound 10 µM). The IC50 (curve of compound) was greater than 10000 nM.

For `COc1ccc([C@@H](O)c2cc(-c3ncnc4cc(N5CCOCC5)ccc34)c(F)cc2Cl)nn1`, the viability, T/C by setting is: (compound 0.0316 µM) 80.5% and 93.2% and 107%; (compound 0.1 µM) 96.4% and 73% and 85.2%; (compound 0.316 µM) 76.1% and 70.2% and 81%; (compound 1 µM) 62.3% and 61.5% and 59.7%; (compound 3.16 µM) 45.4% and 57% and 39.5%; (compound 10 µM) 25.2% and 27.9% and 28.6%. In addition, the IC50 (curve of compound) was 2180 nM and 2740 nM and 1890 nM.

On to `Cc1ccccc1N=Nc1ccc(NC(=O)c2ccnn2C)c(C)c1`, for which the 50% inhibitory concentration (IC50) (compound alone, run of 08/22/2022) was greater than 10000 nM.

As for `Cc1cncc(-c2nc(NCCc3c[nH]c4ccccc34)c3ncn(C(C)C)c3n2)c1`, the viability, T/C (compound 10 µM) was 46.3% [middle of 20 runs].

In the case of `COc1cccc2c1C(=O)c1c(O)c3c(c(O)c1C2=O)CC(O)(C(=O)CO)CC3OC1CC(N)C(O)C(C)O1` (stereo not given) + CC(CO)NC(=O)c1cc(-c2ccc(Cl)cc2)nn(-c2cnn(C)c2)c1=O, the IC50 under setting [1] was determined as 348 nM; the IC50 under setting [2] was found to be 136 nM; the IC50 under setting [3] was 151 nM; the IC50 under setting [4] turned out to be 337 nM; the IC50 under setting [5] stood at 165 nM. Also, the viability, T/C reads like this: under setting [6], 62.5%; under setting [7], 67.7%; under setting [8], 54%; under setting [9], 5.59%; (second compound 0.1 µM, first compound 3.16 µM) 1.72%; (second compound 0.1 µM, first compound 10 µM) 3.58%. Also, the viability, T/C under setting [10] is 49.2%; the viability, T/C under setting [11] is 61.1%; the viability, T/C under setting [12] is 35.6%; the viability, T/C under setting [13] was 4%; the viability, T/C (second compound 0.316 µM, first compound 3.16 µM) is 1.69%; the viability, T/C (second compound 0.316 µM, first compound 10 µM) was 2.61%. For the same molecule, the viability, T/C under setting [14] is 72%; the viability, T/C under setting [15] is 52.9%; the viability, T/C under setting [16] was 39.2%; the viability, T/C under setting [17] was 3.81%; the viability, T/C (second compound 1 µM, first compound 3.16 µM) was 1.11%; the viability, T/C (second compound 1 µM, first compound 10 µM) is 2.5%. Besides, the viability, T/C by setting is: under setting [18], 68.6%; under setting [19], 54%; under setting [20], 52.8%; under setting [21], 1.66%; (second compound 3.16 µM, first compound 3.16 µM) 2.16%; (second compound 3.16 µM, first compound 10 µM) 2.9%. The viability, T/C under setting [22] is 58.7%; the viability, T/C under setting [23] was 61.3%; the viability, T/C under setting [24] was 37%; the viability, T/C under setting [25] was 0.78%; the viability, T/C (second compound 10 µM, first compound 3.16 µM) was 1.79%; the viability, T/C (second compound 10 µM, first compound 10 µM) was 3.41%.

In the case of `Nc1ncn(C2CC(O)C(CO)O2)c(=O)n1` (stereo not given) + CC(CO)NC(=O)c1cc(-c2ccc(Cl)cc2)nn(-c2cnn(C)c2)c1=O, the concentration for half-maximal inhibition (IC50) was greater than 1000 nM under setting [1]; greater than 1000 nM under setting [2]; greater than 1000 nM under setting [3]; greater than 1000 nM under setting [4]; greater than 1000 nM under setting [5]. The viability, T/C (second compound 0.1 µM, first compound 0.00316 µM) was 73.8%; the viability, T/C (second compound 0.1 µM, first compound 0.01 µM) is 85.4%; the viability, T/C under setting [6] was 80%; the viability, T/C under setting [7] is 75.9%; the viability, T/C under setting [8] is 93%; the viability, T/C under setting [9] is 66.8%. Besides, the viability, T/C reads like this: (second compound 0.316 µM, first compound 0.00316 µM) 78.2%; (second compound 0.316 µM, first compound 0.01 µM) 88%; under setting [10], 77.5%; under setting [11], 79.7%; under setting [12], 62.1%; under setting [13], 105%. Also, the viability, T/C by setting is: (second compound 1 µM, first compound 0.00316 µM) 76%; (second compound 1 µM, first compound 0.01 µM) 79.7%; under setting [14], 81.6%; under setting [15], 75.1%; under setting [16], 75.8%; under setting [17], 76.1%. The viability, T/C runs as follows: (second compound 3.16 µM, first compound 0.00316 µM) 60%; (second compound 3.16 µM, first compound 0.01 µM) 81%; under setting [18], 79.3%; under setting [19], 67.1%; under setting [20], 68.8%; under setting [21], 78%. Also, the viability, T/C runs as follows: (second compound 10 µM, first compound 0.00316 µM) 65.9%; (second compound 10 µM, first compound 0.01 µM) 66.5%; under setting [22], 67.5%; under setting [23], 67.2%; under setting [24], 59.1%; under setting [25], 54.6%.

These data come from PubChem BioAssay AID1919017 (Molecular Pharmacology Branch, DTP, NCI, 2023).
